# Assay results from patent US20040006048A1, “Combination of lecithin with ascorbic acid” (priority 2002, published 2004).
# Columns and labels:
# Type in all cases: in vivo
# [1] = tested on: rats in scopolamine induced memory deficit; assay: Scopolamine induced memory deficit, water labyrinth learning test; conditions: scopolamine model, combination 2 × (30 + 10) mg/kg/day p.o.
# normal rats = assay: Learning process of normal rats in water labyrinth; conditions: for Number of errors Mean ± S.E.M. / Swimming time (sec) Mean ± SEM.: p.o., Vit.-C 2 × 10, Lecithin 2 × 30, combination 2 × (30 + 10) mg/kg/day
# Text: Ascorbic acid and lecithin were ineffective when they were given separately (Table I.).
# normal mice = assay: Swimming test, physical performance of normal mice; conditions: for Swimming time (sec) mean ± S.E.M.: p.o., Vit-C 2 × 10, Lecithin 2 × 30, combination 2 × (30 + 10) mg/kg/day
# Text: In the study ascorbic acid was ineffective, when it was given in itself (Table III.).
# [2] = versus vehicle (control) and single components
smiles,measurement,setting,value
"CN1[C@@H]2C[C@@H](OC(=O)[C@H](CO)c3ccccc3)C[C@H]1[C@@H]1O[C@@H]12 [Scopolamine, scopolamine]",Number of errors Mean ± S.E.M.,[1]; session 1,16.2 ± 0.83
same,Swimming time (sec) mean ± S.E.M.,[1]; session 1,114.7 ± 9.45 s
same,Number of errors Mean ± S.E.M.,[1]; session 2,11.6 ± 0.52^++
same,Swimming time (sec) mean ± S.E.M.,[1]; session 2,73.7 ± 6.22 s
same,Number of errors Mean ± S.E.M.,[1]; session 3,8.9 ± 0.41^++
same,Number of errors Mean ± S.E.M.,[1]; session 4,6.3 ± 0.26^++
"O=C1O[C@H]([C@@H](O)CO)C(O)=C1O [Vit.-C, ascorbic acid]",Number of errors Mean ± S.E.M.,normal rats; session 1,16.4 ± 0.45
same,Swimming time (sec) Mean ± SEM.,normal rats; session 1,140.3 ± 9.54 s
same,Number of errors Mean ± S.E.M.,normal rats; session 2,11.6 ± 0.40
same,Swimming time (sec) Mean ± SEM.,normal rats; session 2,89.9 ± 6.22 s
same,Number of errors Mean ± S.E.M.,normal rats; session 3,6.2 ± 0.76
same,Swimming time (sec) Mean ± SEM.,normal rats; session 3,64.9 ± 7.29 s
same,Number of errors Mean ± S.E.M.,normal rats; session 4,3.9 ± 0.35
same,Swimming time (sec) Mean ± SEM.,normal rats; session 4,34.8 ± 2.79 s
same,Effect on the learning process of rats in water labyrinth (in words),normal rats; [2],ineffective
same,Swimming time (sec) mean ± S.E.M.,normal mice; 1. day starting values,76.2 ± 3.7 s
same,Swimming time (sec) mean ± S.E.M.,normal mice; 2. day,70.8 ± 3.8 s
same,Swimming time (sec) mean ± S.E.M.,normal mice; 3. day,82.2 ± 3.4 s
same,Swimming time (sec) mean ± S.E.M.,normal mice; 4. day,88.8 ± 6.1 s
same,Swimming time (sec) mean ± S.E.M.,normal mice; 5. day,90.0 ± 6.9 s
same,Effect on the physical performance of mice in swimming test (in words),normal mice; [2],ineffective
